Reference: patent US10696693B2, “Fused imidazole derivatives as TGF-beta inhibitors” (Rigel Pharmaceuticals, Inc., priority 2014, dated 2020)
Where two headings read alike, the source gives them in different places.

Key:
TGF-β = test: AlphaScreen SureFire p-SMAD3 (Ser423/425) assay, TGF-β-stimulated cells; type: cell-based
Method in brief: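 The p-SMAD-3 (Ser423/425) SureFire assay measured phosphorylation of endogenous SMAD-3 in cell lysates. Cells were plated overnight in collagen-coated plates, exposed to three-fold serially diluted compounds for about 10 minutes, then stimulated with TGFβ. Lysates (5 μL) received acceptor bead mix for 2 hours, then donor beads for 1½ hours before AlphaScreen reading.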

GDF8 = test: AlphaScreen SureFire p-SMAD3 (Ser423/425) assay, GDF8-stimulated cells; type: cell-based
Method in brief: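 A SureFire AlphaScreen assay measured phosphorylation of endogenous SMAD-3 at Ser423/425 in cell lysates. Cells were treated with three-fold serially diluted compounds in DMSO for about 10 minutes, then stimulated with GDF8. After medium removal, cells were lysed in 1× Lysis Buffer (about 25 μL) with gentle shaking for 5-10 minutes.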

[1] = Mus musculus, p-SMAD3 (Ser423/425) AlphaScreen in cell lysate, MPC-11, TGF-β stimulation, read-out: TGF-β: inhibition of TGF-β signaling, TGF-β pSMAD (MPC-11)
[2] = Mus musculus, MPC-11, p-SMAD3 (Ser423/425) AlphaScreen in cell lysate, MPC11, GDF8 stimulation, read-out: GDF8: inhibition of GDF8 signaling, GDF pSMAD (MPC11)
[3] = Mus musculus, MPC-11, read-out: TGF-β: inhibition of TGF-β signaling, TGF-β pSMAD (MPC-11), p-SMAD3 (Ser423/425) AlphaScreen in cell lysate, TGF-β stimulation
[4] = Mus musculus, MPC-11, read-out: GDF8: inhibition of GDF8 signaling, GDF pSMAD (MPC11), p-SMAD3 (Ser423/425) AlphaScreen in cell lysate, GDF8 stimulation

Structure (SMILES) | IC50 (TGF-β; [1]) [nM] | IC50 (GDF8; [2]) [nM] | also measured
Cc1c(-c2nc3n(c2-c2ccc4ncsc4c2)CCC3)ccc(F)c1F [Compound 261, 6-(2-(3,4-difluoro-2-methylphenyl)-6,7-dihydro-5H-pyrrolo[1,2-a]imidazol-3-yl)benzo[d]thiazole] | > 1000 | 100 to 1000 | 
Cc1c(F)ccc(-c2nc3n(c2-c2ccc4ncnn4c2)CCC3)c1Cl [Compound 66, 6-(2-(2-chloro-4-fluoro-3-methylphenyl)-6,7-dihydro-5H-pyrrolo[1,2-a]imidazol-3-yl)-[1,2,4]triazolo[1,5-a]pyridine] | > 1000 | 100 to 1000 | 
Fc1ccc(-c2nc3occn3c2-c2ccc3ncccc3c2)c(F)c1F [Compound 162, 5-(quinolin-6-yl)-6-(2,3,4-trifluorophenyl)imidazo[2,1-b]oxazole] | 100 to 1000 | 50 to 100 | 
COc1c(C)cc(-c2nc3n(c2-c2ccc4nccn4c2)CCC3)cc1C [Compound 31, 6-(2-(4-methoxy-3,5-dimethylphenyl)-6,7-dihydro-5H-pyrrolo[1,2-c]imidazol-3-yl)imidazo[1,2-c]pyridine] | > 1000 | > 1000 | 
Nc1ncnc2ccc(-c3c(-c4cc(Cl)ccc4F)nc4n3CCC4)cc12 [Compound 346, 6-(2-(5-chloro-2-fluorophenyl)-6,7-dihydro-5H-pyrrolo[1,2-a]imidazol-3-yl)quinazolin-4-amine] | < 50 | < 50 | 
Fc1ccc(-c2nc3n(c2-c2ccc4[nH]ncc4c2)CCC3)cc1 [Compound 175, 5-(2-(4-fluorophenyl)-6,7-dihydro-5H-pyrrolo[1,2-a]imidazol-3-yl)-1H-indazole] |  |  | IC50 (TGF-β; [3]): 100 to 1000 nM; IC50 (GDF8; [4]): 100 to 1000 nM
Cc1cc(-c2nc3n(c2-c2ccc4ncsc4c2)CCC3)c(F)cc1F [Compound 269, 6-(2-(2,4-difluoro-5-methylphenyl)-6,7-dihydro-5H-pyrrolo[1,2-a]imidaozl-3-yl)benzo[d]thiazole] | 50 to 100 | < 50 | 
Nc1ncnc2ccc(-c3c(-c4cc(F)cc(F)c4F)nc4n3CCN4)cc12 [Compound 113, 6-(6-(2,3,5-trifluorophenyl)-2,3-dihydro-1H-imidazo[1,2-a]imidazol-5-yl)quinazolin-4-amine] | 50 to 100 | 50 to 100 | 
Cc1cccc(-c2nc3n(c2-c2ccc4nccnc4c2)CCC3)c1 [Compound 180, 6-(2-(m-tolyl)-6,7-dihydro-5H-pyrrolo[1,2-a]imidazol-3-yl)quinoxaline] | 100 to 1000 | < 50 | 
Cc1c(F)ccc(-c2nc3n(c2-c2ccc4ncccc4c2)CCC3)c1C [Compound 331, 6-(2-(4-fluoro-2,3-dimethylphenyl)-6,7-dihydro-5H-pyrrolo[1,2-a]imidazol-3-yl)quinoline] |  |  | IC50 (TGF-β; [3]): > 1000 nM; IC50 (GDF8; [4]): > 1000 nM
Clc1ccc(Cl)c(-c2nc3n(c2-c2ccc4nccn4c2)CCC3)c1 [Compound 93, 6-(2-(2,5-dichlorophenyl)-6,7-dihydro-5H-pyrrolo[1,2-a]imidazol-3-yl)imidazo[1,2-a]pyridine] |  |  | IC50 (TGF-β; [3]): 50 to 100 nM; IC50 (GDF8; [4]): < 50 nM
Fc1ccc(-c2nc3n(c2-c2ccc4cn[nH]c4c2)CCC3)c(F)c1 [Compound 202, 6-(2-(2,4-difluorophenyl)-6,7-dihydro-5H-pyrrolo[1,2-a]imidazol-3-yl)-1H-indazole] | 100 to 1000 | 50 to 100 | 
Fc1ccc(-c2nc3n(c2-c2ccc4cn[nH]c4c2)CCC3)cc1 [Compound 176, 6-(2-(4-fluorophenyl)-6,7-dihydro-5H-pyrrolo[1,2-a]imidazol-3-yl)-1H-indazole] |  |  | IC50 (TGF-β; [3]): > 1000 nM; IC50 (GDF8; [4]): 100 to 1000 nM
Fc1cc(-c2nc3n(c2-c2ccc4nnc(C(F)(F)F)n4c2)CCC3)cc(F)c1F [Compound 33, 3-(trifluoromethyl)-6-(2-(3,4,5-trifluorophenyl)-6,7-dihydro-5H-pyrrolo[1,2-c]imidazol-3-yl)-[1,2,4]triazolo[4,3-c]pyridine] | > 1000 | > 1000 | 
Cc1cccc(-c2nc3occn3c2-c2ccc3[nH]ncc3c2)c1 [Compound 139, 6-(m-tolyl)-5-(1H-indazol-5-yl)imidazo[2,1-b]oxazole] | < 50 | < 50 | 
Fc1ccccc1-c1nc2n(c1-c1ccc3cn[nH]c3c1)CCC2 [Compound 198, 6-(2-(2-fluorophenyl)-6,7-dihydro-5H-pyrrolo[1,2-a]imidazol-3-yl)-1H-indazole] | > 1000 | > 1000 | 
Fc1cc(Cl)c(-c2nc3n(c2-c2ccc4[nH]ncc4c2)CCC3)cc1F [Compound 288, 5-(2-(2-chloro-4,5-difluorophenyl)-6,7-dihydro-5H-pyrrolo[1,2-a]imidazol-3-yl)-1H-indazole] |  |  | IC50 (TGF-β; [3]): > 1000 nM; IC50 (GDF8; [4]): 100 to 1000 nM
Cc1ccc(F)cc1-c1nc2n(c1-c1ccc3ncccc3c1)CCC2 [Compound 303] | > 1000 | > 1000 | 
Cc1ccccc1-c1nc2n(c1-c1ccc3ncsc3c1)CCC2 [Compound 305, 6-(2-(o-tolyl)-6,7-dihydro-5H-pyrrolo[1,2-a]imidazol-3-yl)benzo[d]thiazole] | > 1000 | 100 to 1000 | 
Fc1cc(-c2nc3n(c2-c2ccc4nccnc4c2)CCC3)c(F)cc1Cl [Compound 241, 6-(2-(4-chloro-2,5-difluorophenyl)-6,7-dihydro-5H-pyrrolo[1,2-a]imidazol-3-yl)quinoxaline] | > 1000 | > 1000 | 
Clc1ccc(Cl)c(-c2nc3n(c2-c2ccc4ncccc4c2)CCC3)c1 [Compound 343, 6-(2-(2,5-dichlorophenyl)-6,7-dihydro-5H-pyrrolo[1,2-a]imidazol-3-yl)quinoline] |  |  | IC50 (TGF-β; [3]): 100 to 1000 nM; IC50 (GDF8; [4]): 100 to 1000 nM
Fc1ccc(-c2nc3occn3c2-c2ccc3nccn3c2)cc1F [Compound 137, 6-(3,4-difluorophenyl)-5-(imidazo[1,2-a]pyridin-6-yl)imidazo[2,1-b]oxazole] | 50 to 100 | < 50 | 
Cc1cc(-c2nc3n(c2-c2ccc4nccnc4c2)CCC3)c(Cl)cc1F [Compound 321, 6-(2-(2-chloro-4-fluoro-5-methylphenyl)-6,7-dihydro-5H-pyrrolo[1,2-a]imidazol-3-yl)quinoxaline] |  |  | IC50 (TGF-β; read-out: TGF-β: inhibition of TGF-β signaling, TGF-β pSMAD (MPC-11), p-SMAD3 (Ser423/425) AlphaScreen in cell lysate, TGF-β stimulation): > 1000 nM; IC50 (GDF8; read-out: GDF8: inhibition of GDF8 signaling, GDF pSMAD (MPC11), p-SMAD3 (Ser423/425) AlphaScreen in cell lysate, GDF8 stimulation): > 1000 nM
Cc1ccc(F)cc1-c1nc2n(c1-c1ccc3ncsc3c1)CCC2 [Compound 301, 6-(2-(5-fluoro-2-methylphenyl)-6,7-dihydro-5H-pyrrolo[1,2-a]imidazol-3-yl)benzo[d]thiazole] |  |  | IC50 (TGF-β; [3]): > 1000 nM; IC50 (GDF8; [4]): 100 to 1000 nM
Clc1cccc(-c2nc3n(c2-c2ccc4ncsc4c2)CCC3)c1 [Compound 191, 6-(2-(3-chlorophenyl)-6,7-dihydro-5H-pyrrolo[1,2-a]imidazol-3-yl)benzo[d]thiazole] |  |  | IC50 (TGF-β; [3]): 100 to 1000 nM; IC50 (GDF8; [4]): < 50 nM
Cc1cc(-c2nc3n(c2-c2ccc4nccn4c2)CCC3)ccc1F [Compound 3, 6-(2-(4-fluoro-3-methylphenyl)-6,7-dihydro-5H-pyrrolo[1,2-a]imidazol-3-yl)imidazo[1,2-a]pyridine] | 100 to 1000 | 50 to 100 | 
Cc1c(F)ccc(-c2nc3n(c2-c2ccc4nccnc4c2)CCC3)c1F [Compound 282, 6-(2-(2,4-difluoro-3-methylphenyl)-6,7-dihydro-5H-pyrrolo[1,2-a]imidazol-3-yl)quinoxaline] | 100 to 1000 | 100 to 1000 | 
Fc1ccc(-c2nc3n(c2-c2ccc4ncccc4c2)CCC3)c(F)c1 [Compound 211, 6-(2-(2,4-difluorophenyl)-6,7-dihydro-5H-pyrrolo[1,2-a]imidazol-3-yl)quinoline] | 100 to 1000 | 100 to 1000 | 
